Paper PMC9105233, “The Nitrogen Atom of Vitamin B6 Is Essential for the Catalysis of Radical Aminomutases” (International Journal of Molecular Sciences, 2022)

Target: T1, lysine 5,6-aminomutase (5,6-LAM) (Acetoanaerobium sticklandii, UniProt E3PRJ4+E3PRJ5)
T1 construct: gene kamD
Details: dAdoCbl, NH4-EPPS pH 8.5, reaction 4 min, PLP analogue replacing PLP

T1 sequence (E3PRJ5 whole entry): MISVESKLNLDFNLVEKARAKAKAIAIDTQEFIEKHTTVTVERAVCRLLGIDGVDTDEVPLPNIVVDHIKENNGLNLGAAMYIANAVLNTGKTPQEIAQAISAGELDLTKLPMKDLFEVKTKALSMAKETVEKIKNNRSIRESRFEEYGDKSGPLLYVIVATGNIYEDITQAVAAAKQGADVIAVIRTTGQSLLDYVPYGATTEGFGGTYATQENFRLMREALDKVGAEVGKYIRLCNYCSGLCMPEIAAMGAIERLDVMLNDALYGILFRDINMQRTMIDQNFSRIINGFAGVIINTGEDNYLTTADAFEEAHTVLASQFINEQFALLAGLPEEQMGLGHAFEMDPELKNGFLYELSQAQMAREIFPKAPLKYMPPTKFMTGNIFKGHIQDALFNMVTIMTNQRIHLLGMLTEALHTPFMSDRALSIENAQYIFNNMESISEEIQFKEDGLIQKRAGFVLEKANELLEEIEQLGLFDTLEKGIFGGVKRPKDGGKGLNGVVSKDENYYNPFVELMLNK
T1 sequence (E3PRJ4 whole entry): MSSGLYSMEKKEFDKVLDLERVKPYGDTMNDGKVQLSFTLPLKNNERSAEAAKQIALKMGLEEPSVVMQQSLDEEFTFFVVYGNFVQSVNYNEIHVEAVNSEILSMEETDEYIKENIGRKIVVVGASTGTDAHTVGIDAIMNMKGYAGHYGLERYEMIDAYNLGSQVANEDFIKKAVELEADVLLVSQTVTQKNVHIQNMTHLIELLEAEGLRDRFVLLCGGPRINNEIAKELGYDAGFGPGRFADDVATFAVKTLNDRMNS

Cc1ccc(COP(=O)(O)O)c(C=O)c1O [dAPLP]
EPR of substrate-related radical with 4-thia-L-lysine: this spectrum obtained with dAPLP can be attributed to the corresponding S^•
